Experimental data published in US20220305012A1, “L[…] TREATING SLEEP ISSUES” (EISAI R&D MANAGEMENT CO., LTD., priority 2019, published 2022).

Tests used:
[1] = system: Subjects Having Insomnia Disorder; assay: Example 2: sleep efficiency (SE), polysomnography; format: in vivo, human; settings: Zolpidem ER 6.25 mg
Method: In some embodiments, a sleep parameter is determined objectively using polysomnography. Polysomnography is the monitoring of multiple electrophysiological parameters during sleep and generally includes measurement of EEG activity, electro-oculographic activity and electromyographic activity, as well as other measurements.
SE—sleep efficiency: proportion of time spent asleep per time in bed, calculated as TST/interval from lights off until lights on.
(§1) The treatment period lasted for 31 days. Subjects were randomized in a double-blind manner and received placebo, a tablet containing 5 mg of lemborexant, a tablet containing 10 mg of lemborexant, or a tablet containing 6.25 mg of zolpidem ER.
Within 5 minutes of the subject's mean habitual bedtime, study drug was administered and an overnight polysomnogram recording was initiated. At completion of the recording the following morning (Day 2), postural stability and cognitive performance were assessed. On the Day 2 evening, subjects returned to the clinic and a blood sample was collected before administering study drug, and then study drug was administered within 5 minutes of the subject's mean habitual bedtime. Again, a polysomnogram recording was initiated. The next morning (Day 3), postural stability and cognitive performance were assessed. A blood sample was also collected.
On Day 29, subjects returned to the clinic. Study drug was administered within 5 minutes of the subject's mean habitual bedtime and a polysomnogram recording was conducted. On the following morning (Day 30), postural stability and cognitive performance were assessed. After 1.5 hours of waketime, subjects rated their morning sleepiness level.
On the evening of Day 30, subjects returned to the clinic. A pre-dose blood sample was collected and study drug was again administered within 5 minutes of the subject's mean habitual bedtime. A polysomnogram recording was initiated. The following morning (Day 31), postural stability and cognitive performance were assessed and a blood sample was obtained. The ISI, FSS, EQ-5D-3L and PGI-Insomnia were administered. Blood and urine samples were collected for routine safety assessment. An electrocardiogram was performed, and vital signs and weight were assessed. The eC-SSRS was then administered to the subject. At 1.5 hours after waketime, subjects rated their morning sleepiness level.
One key secondary endpoint was to determine the change from baseline for mean sleep efficiency on Days 29 and 30 after administration of 5 mg or 10 mg of lemborexant, compared to placebo.

[2] = system: Subjects Having Insomnia Disorder; assay: Example 2: subjective sleep efficiency (sSE), sleep diary; format: in vivo, human; settings: Zolpidem ER 6.25 mg
Description: As used herein, the term “subjective sleep efficiency”, abbreviated as “sSE”, means the proportion of sTST per subjective time spent in bed, calculated as the interval from the time the subject reports attempting to sleep until the time the subject stopped trying to sleep for the night (operationalized as the time the subject got out of bed for the day), and time spent asleep derived from subjective time spent in bed minus sWASO. As used herein, an “improvement of sleep efficiency in Subjective Sleep Efficiency (sSE)” means an increase in sleep efficiency in Subjective Sleep Efficiency (sSE).
In some embodiments, sleep diaries were used to assess sleep parameters reported by subjects (i.e., subjective assessments) including subjective sleep onset latency (sSOL), subjective sleep efficiency (sSE), subjective WASO (sWASO), and subjective total sleep time (sTST). Subjects were instructed to complete the Sleep Diary developed based on the consensus Sleep Diary as described in Carney et al., “The consensus sleep diary: standardizing prospective sleep self-monitoring,” Sleep 2012; 35(2):287-302. In some embodiments, the Sleep Diary was used to assess the subject's global perception of quality of sleep on the previous night with the following question: “How would you rate the quality of your sleep last night?” Subjects rated the quality of their sleep on a scale from 1 to 9, with 1 being extremely poor and 9 being extremely good. In some embodiments, the Sleep Diary was used to assess subjective ratings of morning sleepiness with the following question: “How alert/sleepy do you feel this morning?” Subjects rated their sleepiness/alertness level on a Likert scale from 1 to 9, with 1 being extremely sleepy and 9 being extremely alert.
sSE—subjective sleep efficiency: proportion of sTST per subjective time spent in bed, calculated as the interval from the time the subject reports attempting to sleep until the time the subject stopped trying to sleep for the night (operationalized as the time the subject got out of bed for the day), and time spent asleep derived from subjective time in bed minus sWASO.
as §1
Once home, the subject ingested study drug each night prior to bedtime and completed their sleep diary within 1 hour of waketime.

[3] = system: Subjects Having Insomnia Disorder; assay: Example 2: return to sleep latency; format: in vivo, human; settings: Zolpidem 6.25 mg
[4] = system: Subjects Having Insomnia Disorder; assay: Example 2: auditory awakening threshold; settings: Zolpidem 6.25 mg

Cc1ccc(-c2nc3ccc(C)cn3c2CC(=O)N(C)C)cc1 [Zolpidem ER, zolpidem, reference compound]
Sleep Efficiency, Change from Study Baseline, Mean (SD) ([1]; Days 1/2): 11.70 (9.725) | Sleep Efficiency, Change from Study Baseline, Median ([1]; Days 1/2): 10.83 | Sleep Efficiency, Mean (SD) ([1]; Days 1/2): 79.85 (8.461) | Sleep Efficiency, Median ([1]; Days 1/2): 80.73 | Sleep Efficiency, Change from Study Baseline, Mean (SD) ([1]; Days 29/30): 9.06 (11.230) | Sleep Efficiency, Change from Study Baseline, Median ([1]; Days 29/30): 8.39 | Sleep Efficiency, Mean (SD) ([1]; Days 29/30): 77.17 (10.185) | Sleep Efficiency, Median ([1]; Days 29/30): 78.70 | Subjective Sleep Efficiency, Change from Study Baseline, Mean (SD) ([2]; First 7 Nights of Treatment): 11.96 (12.526) | Subjective Sleep Efficiency, Mean (SD) ([2]; First 7 Nights of Treatment): 66.45 (16.419) | Subjective Sleep Efficiency, Model-adjusted change from baseline ([2]; First 7 Nights of Treatment): 12.11 | Subjective Sleep Efficiency, Change from Study Baseline, Mean (SD) ([2]; Last 7 Nights of Treatment): 14.83 (15.011) | Subjective Sleep Efficiency, Mean (SD) ([2]; Last 7 Nights of Treatment): 69.45 (16.925) | Subjective Sleep Efficiency, Model-adjusted change from baseline ([2]; Last 7 Nights of Treatment): 14.82 | Return to Sleep Latency, LSM - Difference vs. Placebo [3]: -21.0 min | Return to Sleep Latency, Mean (SD) change from baseline [3]: -21.2 min | Return to Sleep Latency, Postdose [3]: 19.6 min | Auditory Awakening Threshold, LSM - Difference vs. Placebo [4]: 7.2 | Auditory Awakening Threshold, Mean (SD) [4]: 58.4 | Auditory Awakening Threshold, Median [4]: 55.0
